Laboratory results: patent publication US20060194819A1, “Activation specific inhibitors of nf-kb and method of treating inflammatory processes in cardio-vascular diseases” (PROCORDE GMBH, priority 2003, published 2006)

Columns and labels:
IKK-complex = target: T1, IKK-complex (Homo sapiens, UniProt O14920+O15111+Q9Y6K9); assay: In vitro/cell free kinase assay: IKK-complex immunoprecipitated from TNF alpha stimulated HeLa cells, drugs added afterwards, alpha screen; assay type: biochemical
T1 construct: IKK-complex was immunoprecipitated with anti-NEMO-antibody; endogenous in cells; host or cells: HeLa
T1 sequence (O14920 whole entry): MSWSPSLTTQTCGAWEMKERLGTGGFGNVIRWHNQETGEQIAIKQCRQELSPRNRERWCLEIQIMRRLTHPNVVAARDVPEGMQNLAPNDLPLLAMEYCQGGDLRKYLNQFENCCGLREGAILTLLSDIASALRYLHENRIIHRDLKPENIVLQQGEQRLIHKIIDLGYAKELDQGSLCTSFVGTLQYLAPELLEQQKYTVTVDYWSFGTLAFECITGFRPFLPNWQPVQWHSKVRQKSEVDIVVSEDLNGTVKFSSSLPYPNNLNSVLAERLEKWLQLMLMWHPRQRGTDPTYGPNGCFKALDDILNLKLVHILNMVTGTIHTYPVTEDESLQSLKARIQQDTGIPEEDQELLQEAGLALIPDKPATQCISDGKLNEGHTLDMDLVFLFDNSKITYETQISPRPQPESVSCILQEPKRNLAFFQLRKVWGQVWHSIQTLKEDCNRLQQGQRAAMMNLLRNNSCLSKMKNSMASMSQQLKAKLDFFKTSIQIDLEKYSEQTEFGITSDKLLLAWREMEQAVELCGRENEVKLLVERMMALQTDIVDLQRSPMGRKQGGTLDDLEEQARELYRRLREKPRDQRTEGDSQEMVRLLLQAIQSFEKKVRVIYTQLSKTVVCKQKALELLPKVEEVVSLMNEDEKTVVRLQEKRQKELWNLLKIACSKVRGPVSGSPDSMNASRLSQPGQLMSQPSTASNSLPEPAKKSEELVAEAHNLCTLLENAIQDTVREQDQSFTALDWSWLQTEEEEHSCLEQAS
T1 sequence (O15111 whole entry): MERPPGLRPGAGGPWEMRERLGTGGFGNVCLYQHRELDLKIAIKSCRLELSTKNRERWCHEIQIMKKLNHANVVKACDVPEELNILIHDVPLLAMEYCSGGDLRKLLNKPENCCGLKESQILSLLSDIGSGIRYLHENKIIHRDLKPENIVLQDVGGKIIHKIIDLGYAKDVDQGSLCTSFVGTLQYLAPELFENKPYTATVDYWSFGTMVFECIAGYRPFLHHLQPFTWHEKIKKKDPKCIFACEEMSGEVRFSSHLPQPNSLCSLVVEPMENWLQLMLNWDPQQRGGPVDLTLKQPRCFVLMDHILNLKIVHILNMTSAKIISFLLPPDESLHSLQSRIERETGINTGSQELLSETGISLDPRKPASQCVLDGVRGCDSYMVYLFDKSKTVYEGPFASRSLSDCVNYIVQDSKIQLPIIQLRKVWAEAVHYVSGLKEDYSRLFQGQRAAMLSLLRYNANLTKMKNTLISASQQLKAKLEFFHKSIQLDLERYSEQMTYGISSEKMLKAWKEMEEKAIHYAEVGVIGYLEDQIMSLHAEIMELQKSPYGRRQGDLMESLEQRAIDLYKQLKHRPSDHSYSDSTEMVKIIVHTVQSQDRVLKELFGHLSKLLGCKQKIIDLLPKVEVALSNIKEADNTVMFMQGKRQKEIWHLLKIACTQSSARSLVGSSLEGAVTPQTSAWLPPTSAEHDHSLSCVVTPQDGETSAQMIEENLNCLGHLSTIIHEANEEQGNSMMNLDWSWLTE
T1 sequence (Q9Y6K9 whole entry): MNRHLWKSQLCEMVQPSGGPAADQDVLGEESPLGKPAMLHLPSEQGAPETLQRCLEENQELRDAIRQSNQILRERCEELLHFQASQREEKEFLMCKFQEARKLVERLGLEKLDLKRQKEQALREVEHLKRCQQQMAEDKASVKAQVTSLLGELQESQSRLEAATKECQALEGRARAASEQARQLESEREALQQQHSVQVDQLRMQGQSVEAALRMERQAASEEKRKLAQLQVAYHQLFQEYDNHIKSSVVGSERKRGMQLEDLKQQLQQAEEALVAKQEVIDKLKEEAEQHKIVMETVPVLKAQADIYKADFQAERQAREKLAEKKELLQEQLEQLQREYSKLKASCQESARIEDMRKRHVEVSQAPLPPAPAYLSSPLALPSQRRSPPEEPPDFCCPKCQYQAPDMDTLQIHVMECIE
Method: (§1) In vitro/cell free kinase assay protocol: HeLa cells were maintained in Dulbecco's modified Eagle's medium (Invitrogen) supplemented with 10% fetal bovine serum, 2 mM L-glutamine, penicillin (50 units/ml) and streptomycin (50 μg/ml). 24 h before treatment with TNF alpha HeLa cells were plated at a density of 1×10^7 per well in 175-mm cell culture dishes to 90% confluences.
The cells were stimulated with 20 ng/ml TNF alpha (Roche) without drugs. After 7 min the cells were washed twice with ice cold PBS followed by scraping and transferring into a 1.5 ml micro centrifuge tube. […] 6.6 μl of detection-buffer (20 mM Hepes pH 7.5, 100 mM NaCl, 1% Tween, 0.1 mM BSA, 50 μg/ml Protein A-Acceptor beads, 250 μg/ml Streptavidin-Donor beads (both Perkin-Elmer), 4 nM anti-phospho-IKBα-antibody (Santa Cruz Biotechnology) was dispensed to each well. After incubation for 1.5 h the plate was measured by alpha screen reader (Perkin Elmer).

[1] = system: I KappaB alpha phosphorylation; assay: P-IkBalpha detection in Western blot of HeLa cell lysates after TNF alpha stimulation; assay type: cell-based; settings: HeLa cells, 10 and 100 μM
Method: as §1, with “P-IkBα Detektion in Western-Blot Protocol:” for “In vitro/cell free kinase assay protocol:”, “different compounds” for “TNF alpha”, “5×10^6” for “1×10^7”, “100-mm” for “175-mm”
The cells were incubated with different drugs at the concentration indicated for 1 h, washed twice with PBS and stimulated with 20 ng/ml TNF alpha (Roche). After 7 min the cells were washed twice with ice cold PBS followed by scraping and transferring into a 1.5 ml micro centrifuge tube. After centrifugation by 2000 rpm for 2 min by 4° C. the PBS supernatant was removed and 200 μl lysis-buffer (10 mM Hepes, pH 7.9, 0.1% NP40, 10 mM, 300 mM Sucrose, 10 mM KCl, 15 mM MgCl2, 1 mM DTT, 0.5 mM PMSF and antipain, aprotinin, leupeptin each 0.75 μg/ml (Sigma) was added to the pellet. The resuspended pellet was incubated on ice for 5 min and centrifuged at 13000 g for 30 s. 30 μl of the supernatant, cytosolic extract, was diluted with Laemmli-buffer (2% SDS, 2% 2-Mercaptoethanol, 0.01% Bromophenol blue, 8% Glycerine), heated by 60° C. for 10 min and loaded to a 4-20% polyacrylamid gels (BioRad). After electrophoresis the proteins were transferred to a nitrocellulose membrane using the wet blotting technique. First the membrane was blocked with Roti-Block (Roth) and afterwards incubated with monoclonal antibodies against P-IkBalpha (Santa Cruz Biotechnology, used at 1:200 dilution). This incubation was followed by the appropriate horseradish peroxidase-conjugated secondary antibody (Dianova) at 1:10000 dilution. Antibody binding was visualized on x-ray film using the Western blot Chemiluminescent Reagent Detection Kit (Santa Cruz).

IKKα/β binding to NEMO = target: T2, IKKα/β binding to NEMO (Homo sapiens, UniProt O14920+O15111+Q9Y6K9); assay: Degradation of the immunoprecipitated IKK-complex after drug treatment in vitro, Western blot; assay type: biochemical; settings: precipitated IKK-complex incubated 1 h with compound
T2 construct: endogenous in cells; host or cells: HeLa (immunoprecipitate with anti-NEMO antibody on Protein A-Sepharose)
T2 sequence (Q9Y6K9 whole entry): as above
T2 sequence (O15111 whole entry): as the sequence (O15111 whole entry) above
T2 sequence (O14920 whole entry): as the sequence (O14920 whole entry) above
Method: After immuno-precipitation with anti-NEMO antibody (Santa Cruz) as described earlier, the precipitated and washed IKK-complex was incubated with different concentrations of IKK inhibitors in 20 mM HEPES, pH 8.0, 10 mM MgCl2, 100 μM Na3VO4, 20 mM-glycerophosphate, 50 mM NaCl, 2 mM dithiothreitol, 0.5 μM phenylmethylsulfonyl fluoride, antipain, aprotinin, leupeptin 0.75 μg/ml each (Sigma). After 1 h treatment the probe was centrifuged at 16000 g for 1 min the supernatant was removed totally and the protein A pellet was resuspended in 1×Laemmli-buffer buffer (2% SDS, 2% 2-Mercaptoethanol, 0.01% Bromophenol blue, 8% Glycerine), heated by 60° C. for 10 min and loaded to a 4-20% polyacrylamid gels (BioRad). After electrophoresis the proteins were transferred to a nitrocellulose membrane using the wet blotting technique. First the membrane was blocked with Roti-Block (Roth) and afterwards incubated with monoclonal antibodies against IKKα (Santa Cruz Biotechnology, used at 1:200 dilution). This incubation was followed by the appropriate horseradish peroxidase-conjugated secondary antibody (Dianova) at 1:10000 dilution. Antibody binding was visualized on x-ray film using the Western blot Chemiluminescent Reagent Detection Kit (Santa Cruz). The x-ray film was scanned and the results were analysed by densitometry by the software AIDA.

[2] = Serum levels after single dose IV application in rats, mass spectroscopy; assay type: in vivo; settings: 27.5 and 55 μg IV, 2 and 20 minutes
Method: COM 56 was diluted in saline-buffer to 100 μM and 200 μM in a volume of 200 μL. The probe was administered intravenously in rats. After 2 min and 20 min a blood probe was taken from the right carotid artery. The blood probes were centrifuged by 2500 g for 3 min and the supernatant, the serum component, were analysed by mass spectroscopy.

- potency in the inhibition of IKK activity compared to COM 73 (IKK-complex; cell-free assay): significantly higher
- inhibition of IKK activity in cell-free assay (IKK-complex; increasing concentrations on isolated IKK complex): dose-dependently inhibited
- disruption of the IKK complex (NEMO binding to IKK-alpha/beta) in vitro (IKKα/β binding to NEMO): dose-dependently disrupted
- serum levels after single IV application [2]: considerable serum levels
- serum levels after single IV application ([2]; listed as compound 56): positive serum probes
Compound: CCOC(=O)C1=C(C)N=c2s/c(=C/c3ccc(-c4cccc(C(=O)O)c4)o3)c(=O)n2C1c1ccc(Cl)cc1 (stereo not drawn) [COM 56, 2-[5-(3-Carboxyphenyl)-furan-2-ylmethylene]-5-(4-chlorophenyl)-7-methyl-3-oxo-2,3-dihydro-5H-thiazolo[3,2-a]pyrimidine-6-carboxylic acid ethyl ester]
- effect on IkappaB phosphorylation (Western blot), comparison of COM 73 and COM 54 family [1]: concentration-dependently inhibited
